Results on nine compounds are retold here after publication PMC11472331 (Journal of Medicinal Chemistry, 2024).

Read-outs that look alike come from different tables or passages of the source.

One series addresses HDAC1 (Homo sapiens, UniProt Q13547). Put plainly: HDAC isoform inhibition assay (Reaction Biology). To be noted: read-out: IC50 HDAC1; 10-dose IC50 mode, threefold serial dilution starting at 10 μM.
Series [1] concerns the target T1, LSD1 (Homo sapiens, UniProt O60341). To be noted: read-out: IC50 (μM, LSD1 inhibition); 10-dose IC50 mode, singlet, threefold serial dilution starting at 100 μM.
A short description of another series: in vivo. To be noted: male, Sprague-Dawley, rat, plasma, po, 20 mg/kg.
Series [2] concerns the target T1, LSD1. As to the kind of experiment: KDM1/LSD1 activity quantification/colorimetric assay. To be noted: 1 and 10 μM; compared with Corgline, selegiline, tranylcypromine, pargyline. The format is biochemical. The method, then: LSD1 inhibitory assay was also performed using the KDM1/LSD1 Activity Quantification/Colorimetric Assay Kit, as described earlier.[38]
For a further series, the system named is HCT-116. Put plainly: HCT-116 xenograft model. The format is in vivo, Balb/c nude mice. To be noted: 50 or 100 mg/kg ip qd, nude mice.
Another series deals with HDAC2 (Homo sapiens, UniProt Q92769). Put plainly: HDAC isoform inhibition assay (Reaction Biology). To be noted: read-out: IC50 HDAC2; 10-dose IC50 mode, threefold serial dilution starting at 10 μM.
In another series the target is T2, HDAC6 (Homo sapiens, UniProt Q9UBN7).
T2 sequence (Q9UBN7 1-1215): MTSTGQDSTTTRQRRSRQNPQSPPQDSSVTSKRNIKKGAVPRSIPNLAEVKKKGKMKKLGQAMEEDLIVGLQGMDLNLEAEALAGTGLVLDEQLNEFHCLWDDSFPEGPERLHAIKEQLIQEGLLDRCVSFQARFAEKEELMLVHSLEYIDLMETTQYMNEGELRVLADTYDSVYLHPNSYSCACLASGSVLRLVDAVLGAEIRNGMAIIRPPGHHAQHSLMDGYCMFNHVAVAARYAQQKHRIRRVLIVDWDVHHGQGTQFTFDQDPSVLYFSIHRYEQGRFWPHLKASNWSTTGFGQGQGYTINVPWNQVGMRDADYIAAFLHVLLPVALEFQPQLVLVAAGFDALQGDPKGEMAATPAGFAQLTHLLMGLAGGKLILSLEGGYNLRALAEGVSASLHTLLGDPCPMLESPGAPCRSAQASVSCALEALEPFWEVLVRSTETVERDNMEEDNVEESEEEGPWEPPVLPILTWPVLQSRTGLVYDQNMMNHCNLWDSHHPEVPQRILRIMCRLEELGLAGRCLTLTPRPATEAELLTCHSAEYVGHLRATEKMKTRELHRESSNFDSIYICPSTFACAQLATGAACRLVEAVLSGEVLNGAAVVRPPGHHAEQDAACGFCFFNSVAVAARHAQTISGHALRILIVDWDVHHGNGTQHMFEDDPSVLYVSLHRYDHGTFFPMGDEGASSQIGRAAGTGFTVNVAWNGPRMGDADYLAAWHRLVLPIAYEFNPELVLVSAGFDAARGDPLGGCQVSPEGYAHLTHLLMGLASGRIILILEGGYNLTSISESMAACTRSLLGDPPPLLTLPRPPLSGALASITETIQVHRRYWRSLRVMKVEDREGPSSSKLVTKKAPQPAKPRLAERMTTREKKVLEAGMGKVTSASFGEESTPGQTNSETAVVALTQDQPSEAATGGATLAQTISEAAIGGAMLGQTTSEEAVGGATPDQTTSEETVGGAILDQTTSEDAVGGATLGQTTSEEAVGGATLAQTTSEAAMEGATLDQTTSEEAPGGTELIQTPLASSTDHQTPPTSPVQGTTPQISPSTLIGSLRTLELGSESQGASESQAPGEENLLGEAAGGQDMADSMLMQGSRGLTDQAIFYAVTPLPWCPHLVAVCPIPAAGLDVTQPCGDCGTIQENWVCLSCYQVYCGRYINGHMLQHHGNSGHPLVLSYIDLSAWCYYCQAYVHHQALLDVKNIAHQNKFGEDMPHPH
Put plainly: HDAC isoform inhibition assay (Reaction Biology).

The target in another series is T3, HDAC8 (Homo sapiens, UniProt Q9BY41).
T3 sequence (Q9BY41 1-377): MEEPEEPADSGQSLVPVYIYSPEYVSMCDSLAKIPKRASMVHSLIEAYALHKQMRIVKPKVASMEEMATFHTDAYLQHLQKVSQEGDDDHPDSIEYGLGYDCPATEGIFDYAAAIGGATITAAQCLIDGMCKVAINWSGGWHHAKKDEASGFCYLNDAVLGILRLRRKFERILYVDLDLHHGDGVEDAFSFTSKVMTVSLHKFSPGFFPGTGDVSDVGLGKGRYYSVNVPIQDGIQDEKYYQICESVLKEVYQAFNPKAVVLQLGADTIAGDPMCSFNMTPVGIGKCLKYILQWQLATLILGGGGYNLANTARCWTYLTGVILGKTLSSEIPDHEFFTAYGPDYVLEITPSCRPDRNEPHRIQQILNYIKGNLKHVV
As to the kind of experiment: HDAC isoform inhibition assay (Reaction Biology). To be noted: read-out: IC50 HDAC8; 10-dose IC50 mode, threefold serial dilution starting at 10 μM.

Setting [3] is: read-out: IC50 HDAC6, 10-dose IC50 mode, threefold serial dilution starting at 10 μM.

Sequence of HDAC2 (Q92769 whole entry, canonical isoform): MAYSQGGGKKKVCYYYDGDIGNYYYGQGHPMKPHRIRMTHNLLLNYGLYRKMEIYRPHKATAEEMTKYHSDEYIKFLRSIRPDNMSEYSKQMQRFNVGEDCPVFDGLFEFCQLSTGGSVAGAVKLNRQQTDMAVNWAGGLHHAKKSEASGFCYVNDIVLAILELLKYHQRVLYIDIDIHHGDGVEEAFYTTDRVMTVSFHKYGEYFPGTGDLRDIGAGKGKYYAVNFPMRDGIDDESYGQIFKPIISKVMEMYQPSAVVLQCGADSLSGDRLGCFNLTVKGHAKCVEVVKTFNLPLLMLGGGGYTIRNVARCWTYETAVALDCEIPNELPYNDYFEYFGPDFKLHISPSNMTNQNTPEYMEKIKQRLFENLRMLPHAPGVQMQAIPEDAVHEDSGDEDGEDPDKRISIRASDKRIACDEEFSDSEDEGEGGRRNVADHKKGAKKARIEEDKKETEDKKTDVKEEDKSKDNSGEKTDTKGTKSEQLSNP
Sequence of HDAC1 (Q13547 whole entry, canonical isoform): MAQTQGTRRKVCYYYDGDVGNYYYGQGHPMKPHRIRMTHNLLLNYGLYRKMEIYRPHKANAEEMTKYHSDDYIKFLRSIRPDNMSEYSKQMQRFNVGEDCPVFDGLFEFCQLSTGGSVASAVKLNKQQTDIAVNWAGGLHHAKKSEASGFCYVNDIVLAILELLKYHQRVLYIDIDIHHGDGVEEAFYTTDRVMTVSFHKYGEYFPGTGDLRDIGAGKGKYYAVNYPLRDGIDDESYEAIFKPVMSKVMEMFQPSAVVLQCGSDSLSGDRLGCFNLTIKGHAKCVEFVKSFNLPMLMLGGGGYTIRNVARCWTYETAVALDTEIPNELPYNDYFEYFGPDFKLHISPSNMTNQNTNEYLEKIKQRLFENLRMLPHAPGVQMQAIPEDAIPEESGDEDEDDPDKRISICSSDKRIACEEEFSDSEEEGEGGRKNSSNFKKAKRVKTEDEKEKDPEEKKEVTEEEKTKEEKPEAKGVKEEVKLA
Protocol for HCT-116: (A) Tumor size was evaluated twice a week, and (B) body weight was recorded daily in the first week, followed by semiweekly measurements.
Once the tumor sizes reached 150 mm^3, the mice were divided into four treatment groups, each comprising six mice. […] Throughout the experiment, tumor size and body weight were measured twice a week, with tumor volume (mm^3) calculated using the formula LW^2/2 (L is the tumor length, and W is the tumor width). Tumor growth inhibition (TGI) was calculated by dividing the tumor volumes from treatment groups by those of the control groups, expressed as a percentage.

One may read the IC50 as the concentration needed to halve the response being measured. As to `O=C(NO)c1ccc(CN[C@@H]2C[C@H]2c2ccccc2)cc1` [Compound 1, N-Hydroxy-4-((((1R,2S)-2-phenylcyclopropyl)amino)methyl)benzamide], the IC50 on HDAC1 was determined as 8720 nM; on LSD1 [1], 28 µM.

For orientation: Tmax means the time from dosing to the highest level. On to `O=C(/C=C/c1cccc(S(=O)(=O)N[C@@H]2C[C@H]2c2ccccc2)c1)NO` [Compound 2, (E)-N-Hydroxy-3-(3-(N-((1R,2S)-2-phenylcyclopropyl)sulfamoyl)phenyl)acrylamide], for which, in the series “in vivo”, the Tmax came to 1.1 ± 0.9 h. For the same compound, the “inhibition of LSD1 activity versus standard LSD1 inhibitors” value at LSD1 [2] is “more effective in inhibiting the activity of LSD1 than the standard LSD1 inhibitor”. Further, the IC50 at HDAC1 worked out at 125 nM; at LSD1 [1], 0.571 µM; at HDAC2 it was 373 nM; against HDAC6, 11 nM; at HDAC6 (setting [3]), 11.8 nM. For the same compound, the “toxicity based on body weight measurements” value in the series on HCT-116 is “did not cause evident toxicity in animals”.

`O=C(/C=C/c1ccc(S(=O)(=O)N[C@@H]2C[C@H]2c2ccccc2)cc1)NO` [Compound 3, (E)-N-Hydroxy-3-(4-(N-((1R,2S)-2-phenylcyclopropyl)sulfamoyl)phenyl)acrylamide]: the IC50 on HDAC1 worked out at 116 nM; at LSD1 [1], 0.899 µM; on HDAC8 it was 753 nM; on HDAC2 it was 343 nM; at HDAC6, 9 nM; on HDAC6 (setting [3]), 9.66 nM.

Consider `O=C(CCCCCC(=O)N[C@@H]1C[C@H]1c1ccccc1)NO` [Compound 4, N1-Hydroxy-N7-((1R,2S)-2-phenylcyclopropyl)heptanediamide], for which the IC50 at LSD1 [1] was 38.3 µM.

As to `O=C(CCCCCCC(=O)N[C@@H]1C[C@H]1c1ccccc1)NO` [Compound 5, N1-Hydroxy-N8-((1R,2S)-2-phenylcyclopropyl)octanediamide], the IC50 at LSD1 [1] stood at 14.6 µM.

For the compound `O=C(CCCCCCCCC(=O)N[C@@H]1C[C@H]1c1ccccc1)NO` [Compound 7, N1-Hydroxy-N10-((1R,2S)-2-phenylcyclopropyl)decanediamide], the IC50 on LSD1 [1] is 7.68 µM.

Consider `O=C(CCCCCCC(=O)Nc1ccc(CN[C@@H]2C[C@H]2c2ccccc2)cc1)NO` [Compound 8], for which the IC50 on LSD1 [1] turned out to be 1.61 µM; at HDAC6 (setting [3]), 3730 nM.

Regarding `O=C(NO)c1ccc(CN2CCC(CN[C@@H]3C[C@H]3c3ccccc3)CC2)cc1` [Compound 9, N-Hydroxy-4-((4-((((1R,2S)-2-phenylcyclopropyl)amino)methyl)piperidin-1-yl)methyl)benzamide], the IC50 on HDAC1 was found to be 12900 nM; at HDAC8 it was 1260 nM.

As to `O=C(NO)c1ccc(CN2CCC(S(=O)(=O)N[C@@H]3C[C@H]3c3ccccc3)CC2)cc1` [Compound 10, N-Hydroxy-4-((4-(N-((1R,2S)-2-phenylcyclopropyl)sulfamoyl)piperidin-1-yl)methyl)benzamide], the IC50 was 4120 nM on HDAC1; 2.4 µM at LSD1 [1]; 407 nM on HDAC8; 8300 nM at HDAC2; 9 nM at HDAC6 (read-out: HDAC6 IC50 as given in the text, rounded values of the running text); 9.32 nM at HDAC6 (setting [3]).
